Assay results as given in patent publication US6737383B1, “Herbicidal oxadiazolidines” (priority 1999, dated 2004).

Assays:
cocklebur = assay: Test B pre/postemergence cocklebur; type: in vivo, Xanthium strumarium
Procedure, shortened: (§1)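 Herbicidal effect was estimated by eye on a ten-point control scale after plants spent twelve to sixteen days in a greenhouse following soil or foliar treatment. Foliar sprays targeted plants at one to four leaves; all doses were formulated in a non-phytotoxic solvent with surfactant.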

corn = assay: Test B pre/postemergence corn; type: in vivo, Zea mays
Procedure, shortened: as §1

crabgrass = assay: Test B pre/postemergence crabgrass; type: in vivo, Digitaria sanguinalis
Procedure, shortened: as §1

giant foxtail = assay: Test B pre/postemergence giant foxtail; type: in vivo, Setaria faberii
Procedure, shortened: as §1

morningglory = assay: Test B pre/postemergence morningglory; type: in vivo, Ipomoea hederacea
Procedure, shortened: as §1

pigweed = assay: Test B pre/postemergence pigweed; type: in vivo, Amaranthus retroflexus
Procedure, shortened: as §1

rape = assay: Test B pre/postemergence rape; type: in vivo, Brassica napus
Procedure, shortened: as §1

soybean = assay: Test B pre/postemergence soybean; type: in vivo, Glycine max
Procedure, shortened: as §1

sugar beet = assay: Test B pre/postemergence sugar beet; type: in vivo, Beta vulgaris
Procedure, shortened: as §1

velvetleaf = assay: Test B pre/postemergence velvetleaf; type: in vivo, Abutilon theophrasti
Procedure, shortened: as §1

wheat = assay: Test B pre/postemergence wheat; type: in vivo, Triticum aestivum
Procedure, shortened: as §1

wild oat = assay: Test B pre/postemergence wild oat; type: in vivo, Avena fatua
Procedure, shortened: as §1

purple nutsedge = assay: Test B pre/postemergence purple nutsedge; type: in vivo, Cyperus rotundus
Procedure, shortened: as §1

rice = assay: Test B flood test rice; type: in vivo, Oryza sativa
Procedure, shortened: (§2)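 Each value is a visual injury score relative to controls, with 10 meaning complete control and 0 no effect. Evaluation took place twelve to sixteen days after the 2-leaf-stage plants were treated and kept in the greenhouse.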

duck salad = assay: Test B flood test duck salad; type: in vivo, Heteranthera limosa
Procedure, shortened: as §2

bamyardgrass = assay: Test B flood test barnyardgrass; type: in vivo, Echinochloa crus-galli
Procedure, shortened: as §2

[1] = Preemergence, Rate 62 g/ha, scale of 0 to 10 where 0 is no effect and 10 is complete control
[2] = Preemergence, Rate 125 g/ha, 0 is no effect, 10 is complete control
[3] = Preemergence, Rate 250 g/ha, scale 0 to 10, 0 is no effect, 10 is complete control
[4] = Preemergence, Rate 500 g/ha, scale of 0 to 10 where 0 is no effect and 10 is complete control
[5] = Rate 62 g/ha, Postemergence, scale of 0 to 10 where 0 is no effect and 10 is complete control
[6] = Rate 125 g/ha, Postemergence, scale 0 to 10
[7] = Rate 500 g/ha, Postemergence, scale 0 to 10
[8] = Rate 62 g/ha, headed Pre-emergence (flood test species), scale 0 to 10 (0 no effect, 10 complete control)
[9] = Rate 125 g/ha, Pre-emergence, flood test species, scale 0 to 10 where 0 is no effect and 10 is complete control
[10] = Rate 250 g/ha, Pre-emergence, flood-test species, scale 0 to 10, 0 is no effect, 10 is complete control
[11] = Rate 500 g/ha, headed Pre-emergence (flood test species), scale 0 to 10 (0 no effect, 10 complete control)

## CCC(CC)N(C(=O)n1oc(=O)n(-c2ccccc2C)c1=O)c1ccc(F)cc1 [Compound 193]
cocklebur; [1]
  Cocklebur plant response rating: 0
cocklebur; [2]
  Cocklebur plant response rating (0 to 10 scale): 0
cocklebur; [3]
  Cocklebur plant response rating: 0
cocklebur; [4]
  Plant response rating, Cocklebur: 0
cocklebur; [5]
  Cocklebur plant response rating: 0
cocklebur; [6]
  Cocklebur plant response rating: 0
cocklebur; Rate 250 g/ha, Postemergence
  Plant response rating (0 to 10; 0 is no effect, 10 is complete control), Cocklebur: 0
cocklebur; [7]
  Cocklebur plant response rating: 0
corn; [1]
  Corn plant response rating: 0
corn; [2]
  Corn plant response rating (0 to 10 scale): 0
corn; [3]
  Corn plant response rating: 0
corn; [4]
  Plant response rating, Corn: 0
corn; [5]
  Corn plant response rating: 0
corn; [6]
  Corn plant response rating: 0
corn; Rate 250 g/ha, Postemergence
  Plant response rating (0 to 10; 0 is no effect, 10 is complete control), Corn: 0
corn; [7]
  Corn plant response rating: 0
crabgrass; [2]
  Crabgrass plant response rating (0 to 10 scale): 4
crabgrass; [3]
  Crabgrass plant response rating: 6
crabgrass; [4]
  Plant response rating, Crabgrass: 7
crabgrass; [5]
  Crabgrass plant response rating: 0
crabgrass; [6]
  Crabgrass plant response rating: 0
crabgrass; Rate 250 g/ha, Postemergence
  Plant response rating (0 to 10; 0 is no effect, 10 is complete control), Crabgrass: 0
crabgrass; [7]
  Crabgrass plant response rating: 0
Giant foxtail; [1]
  Giant foxtail plant response rating: 2
Giant foxtail; [2]
  Giant foxtail plant response rating (0 to 10 scale): 4
Giant foxtail; [3]
  Giant foxtail plant response rating: 5
Giant foxtail; [4]
  Plant response rating, Giant foxtail: 6
Giant foxtail; [5]
  Giant foxtail plant response rating: 0
Giant foxtail; [6]
  Giant foxtail plant response rating: 0
Giant foxtail; Rate 250 g/ha, Postemergence
  Plant response rating (0 to 10; 0 is no effect, 10 is complete control), Giant foxtail: 0
Giant foxtail; [7]
  Giant foxtail plant response rating: 0
morningglory; [1]
  Morningglory plant response rating: 0
morningglory; [2]
  Morningglory plant response rating (0 to 10 scale): 0
morningglory; [3]
  Morningglory plant response rating: 0
morningglory; [4]
  Plant response rating, Morningglory: 0
morningglory; [5]
  Morningglory plant response rating: 0
morningglory; [6]
  Morningglory plant response rating: 0
morningglory; Rate 250 g/ha, Postemergence
  Plant response rating (0 to 10; 0 is no effect, 10 is complete control), Morningglory: 1
morningglory; [7]
  Morningglory plant response rating: 2
pigweed; [1]
  Redroot pigweed plant response rating: 0
pigweed; [2]
  Redroot pigweed plant response rating (0 to 10 scale): 0
pigweed; [3]
  Redroot pigweed plant response rating: 0
pigweed; [4]
  Plant response rating, Redroot pigweed: 0
pigweed; [5]
  Redroot pigweed plant response rating: 0
pigweed; [6]
  Redroot pigweed plant response rating: 0
pigweed; Rate 250 g/ha, Postemergence
  Plant response rating (0 to 10; 0 is no effect, 10 is complete control), Redroot pigweed: 0
pigweed; [7]
  Redroot pigweed plant response rating: 0
rape; [1]
  Rape plant response rating: 0
rape; [2]
  Rape plant response rating (0 to 10 scale): 0
rape; [3]
  Rape plant response rating: 0
rape; [4]
  Plant response rating, Rape: 0
rape; [5]
  Rape plant response rating: 0
rape; [6]
  Rape plant response rating: 0
rape; Rate 250 g/ha, Postemergence
  Plant response rating (0 to 10; 0 is no effect, 10 is complete control), Rape: 0
rape; [7]
  Rape plant response rating: 0
soybean; [1]
  Soybean plant response rating: 0
soybean; [2]
  Soybean plant response rating (0 to 10 scale): 0
soybean; [3]
  Soybean plant response rating: 0
soybean; [4]
  Plant response rating, Soybean: 0
soybean; [5]
  Soybean plant response rating: 0
soybean; [6]
  Soybean plant response rating: 1
soybean; Rate 250 g/ha, Postemergence
  Plant response rating (0 to 10; 0 is no effect, 10 is complete control), Soybean: 1
soybean; [7]
  Soybean plant response rating: 2
Sugar beet; [1]
  Sugarbeets plant response rating: 0
Sugar beet; [2]
  Sugarbeets plant response rating (0 to 10 scale): 0
Sugar beet; [3]
  Sugarbeets plant response rating: 0
Sugar beet; [4]
  Plant response rating, Sugarbeets: 0
Sugar beet; [5]
  Sugarbeets plant response rating: 0
Sugar beet; [6]
  Sugarbeets plant response rating: 0
Sugar beet; Rate 250 g/ha, Postemergence
  Plant response rating (0 to 10; 0 is no effect, 10 is complete control), Sugarbeets: 0
Sugar beet; [7]
  Sugarbeets plant response rating: 0
velvetleaf; [1]
  Velvetleaf plant response rating: 0
velvetleaf; [3]
  Velvetleaf plant response rating: 0
velvetleaf; [4]
  Plant response rating, Velvetleaf: 0
velvetleaf; [5]
  Velvetleaf plant response rating: 0
velvetleaf; [6]
  Velvetleaf plant response rating: 0
velvetleaf; Rate 250 g/ha, Postemergence
  Plant response rating (0 to 10; 0 is no effect, 10 is complete control), Velvetleaf: 0
wheat; [1]
  Wheat plant response rating: 0
wheat; [3]
  Wheat plant response rating: 0
wheat; [4]
  Plant response rating, Wheat: 0
wheat; [5]
  Wheat plant response rating: 0
wheat; [6]
  Wheat plant response rating: 0
wheat; Rate 250 g/ha, Postemergence
  Plant response rating (0 to 10; 0 is no effect, 10 is complete control), Wheat: 0
Wild oat; [1]
  Wild oats plant response rating: 0
Wild oat; [3]
  Wild oats plant response rating: 0
Wild oat; [4]
  Plant response rating, Wild oats: 0
Wild oat; [5]
  Wild oats plant response rating: 0
Wild oat; [6]
  Wild oats plant response rating: 0
Wild oat; Rate 250 g/ha, Postemergence
  Plant response rating (0 to 10; 0 is no effect, 10 is complete control), Wild oats: 0
Purple nutsedge; [1]
  Nutsedge plant response rating: 0
Purple nutsedge; [2]
  Nutsedge plant response rating (0 to 10 scale): 0
Purple nutsedge; [3]
  Nutsedge plant response rating: 0
Purple nutsedge; [4]
  Plant response rating, Nutsedge: 0
Purple nutsedge; [5]
  Nutsedge plant response rating: 0
Purple nutsedge; [6]
  Nutsedge plant response rating: 0
Purple nutsedge; Rate 250 g/ha, Postemergence
  Plant response rating (0 to 10; 0 is no effect, 10 is complete control), Nutsedge: 0
Purple nutsedge; [7]
  Nutsedge plant response rating: 0
rice; [8]
  Rice plant response rating: 0
rice; [9]
  Rice plant response rating: 0
rice; [10]
  Rice plant response rating: 0
rice; [11]
  Plant response rating, Rice: 0
Duck salad; [8]
  Ducksalad plant response rating: 0
Duck salad; [9]
  Ducksalad plant response rating: 0
Duck salad; [10]
  Ducksalad plant response rating: 0
Duck salad; [11]
  Plant response rating, Ducksalad: 0
bamyardgrass; [8]
  Barnyardgrass plant response rating: 0
bamyardgrass; [9]
  Barnyardgrass plant response rating: 0
bamyardgrass; [10]
  Barnyardgrass plant response rating: 0
bamyardgrass; [11]
  Plant response rating, Barnyardgrass: 0
